Patent US20260373165A1, “PHARMACEUTICAL COMBINATIONS AND COMPOSITIONS, AND METHODS OF USE THEREOF” (SHENZHEN HIGHTIDE BIOPHARMACEUTICAL LTD., priority 2022, published 2026)

Tests used:
Type in all cases: in vivo, mouse (C57BL/6J male, 60% HFD DIO)
[1] = Example 2: body weight and body weight change rate, combined administration of HTD1801 and dapagliflozin or empagliflozin in DIO obesity model; conditions: HTD1801 250 mpk, dapagliflozin 10 mpk, empagliflozin 15 mpk p.o. QD, semaglutide 10 nmol/kg s.c. Q3D
Excerpt: (§1) After 5-6-week-old C57BL/6J male mice were acclimatized for 1 week, the weight of each mouse was weighed, and the mice were randomly divided into a control group and a model group by taking the weight as a main index, where 12 mice in the control group were fed with common feed (CD), and the mice in the remaining model group were fed with 60% high-fat feed (60% HFD) for 10-12 weeks to construct a DIO obesity model, with the average body weight being not less than 40 g. The mice fed with 60% HFD were grabbed and acclimatized with a solvent for 3 days, where the acclimatization with a solvent was performed by oral gavage of 0.5% CMC-Na, once daily.
(§2) The food intake, the body weight, the body fat ratio, and the insulin level of the mice were respectively measured, followed by fasting blood glucose level, and the mice were randomly grouped according to Table 12 by taking the body weight as an index, and the remaining ungrouped mice were euthanized. After grouping, each group of mice was administered according to Table 12, the day of administration was defined as DO, and the administration volume of each drug was determined based on the results obtained by the calculation of 5 μL/g× mouse body weight (g).
(§3) For the combined administration group, the administration sequence and the administration time were kept consistent at each administration. The mice were continuously fed with high-fat feed during the administration period until the administration was finished. During administration, 1 food intake was measured per week (difference in feed weights at an interval of 24 h was measured); each group of mice was weighed once daily; blood was collected from the tail tip on day 16 and day 30, respectively, so as to measure fasting blood glucose levels once (blood was collected after fasting from 9:00 am to 3:[…]); on day 24 of administration (D23), the body fat ratio and the lean mass of each group of mice were measured by MRI (the measurement period was kept consistent with that before grouping); after 25 days of administration intervention (day 24), each group of mice was fasted for 6 h and subjected to OGTT (0 min, 15 min, 30 min, 60 min, 90 min, 120 min) to detect their blood glucose levels; after 29 days of administration intervention (day 28), each group of mice was fasted for 6 h and subjected to OGTT (0 min, 15 min, 30 min, 60 min, 90 min, 120 min), and meanwhile subjected to blood sampling via submaxillary vein (0 min, 15 min, 30 min, about 30 μL of blood sampled each time), and then the blood plasma was separated for detecting the insulin level by ELISA, where the separated blood plasma was more than 10 μL; the next day (D30) at the end of administration was set as the test endpoint, and the mice were fasted for 6 h in the morning and subjected to fasting blood glucose level measurement; subsequently, the mice were euthanized with CO2, blood was collected from the heart of each mouse for analysis, and each group of mice was dissected; the liver and subcutaneous, epididymal and mesenteric fat was collected, photographed and weighed, respectively.

[2] = Example 2: body fat mass by MRI on day 23
Excerpt: as §1, §2, §3
The body weight, the body fat mass and the body fat ratio of each animal in groups G1 to G8 were measured on day 23 and averaged for each group, and the results are shown in Table 15 below, and FIGS. 21 and 22.

[3] = Example 2: lean mass by MRI on day 23
Excerpt: as §1, §2, §3
The body weight, the lean mass and the lean ratio of each animal in groups G1 to G8 were measured on day 23 and averaged for each group, and the results are shown in Table 16 below, and FIGS. 23 and 24.

[4] = mean, day 23, HTD1801 250 mpk, dapagliflozin 10 mpk, empagliflozin 15 mpk p.o. QD

## COc1ccc2cc3[n+](cc2c1OC)CCc1cc2c(cc1-3)OCO2.C[C@H](CCC(=O)[O-])[C@H]1CC[C@H]2[C@@H]3[C@@H](O)C[C@@H]4C[C@H](O)CC[C@]4(C)[C@H]3CC[C@]12C [HTD1801, berberine ursodeoxycholate]
[1]
  body weight change / weight loss effect (in words): close to that of the semaglutide group, with a uniform and sustained decrease throughout the administration period
[1]; day 0 (baseline)
  Body weight (mean): 45.3 g
  Body weight change rate: 0.0%
[1]; day 1
  Body weight (mean): 44.5 g
  Body weight change rate: −1.6%
[1]; day 2
  Body weight (mean): 44.1 g
  Body weight change rate: −2.5%
[1]; day 3
  Body weight (mean): 44.1 g
  Body weight change rate: −2.5%
[1]; day 4
  Body weight (mean): 43.6 g
  Body weight change rate: −3.7%
[1]; day 5
  Body weight (mean): 43.1 g
  Body weight change rate: −4.9%
[1]; day 6
  Body weight (mean): 42.7 g
  Body weight change rate: −5.7%
[1]; day 7
  Body weight (mean): 42.7 g
  Body weight change rate: −5.7%
[1]; day 8
  Body weight (mean): 42.5 g
  Body weight change rate: −6.2%
[1]; day 9
  Body weight (mean): 41.9 g
  Body weight change rate: −7.5%
[1]; day 10
  Body weight (mean): 41.9 g
  Body weight change rate: −7.4%
[1]; day 11
  Body weight (mean): 41.7 g
  Body weight change rate: −7.9%
[1]; day 12
  Body weight (mean): 41.3 g
  Body weight change rate: −8.7%
[1]; day 13
  Body weight (mean): 40.3 g
  Body weight change rate: −10.9%
[1]; day 14
  Body weight (mean): 40.5 g
  Body weight change rate: −10.7%
[1]; day 15
  Body weight (mean): 40.3 g
  Body weight change rate: −11.1%
[1]; day 16
  Body weight (mean): 40.2 g
  Body weight change rate: −11.2%
[1]; day 17
  Body weight (mean): 39.9 g
  Body weight change rate: −11.8%
[1]; day 18
  Body weight (mean): 39.7 g
  Body weight change rate: −12.3%
[1]; day 19
  Body weight (mean): 39.4 g
  Body weight change rate: −12.8%
[1]; day 20
  Body weight (mean): 39.3 g
  Body weight change rate: −13.2%
[1]; day 21
  Body weight (mean): 39.1 g
  Body weight change rate: −13.5%
[1]; day 22
  Body weight (mean): 39.2 g
  Body weight change rate: −13.4%
[1]; day 23
  Body weight (mean): 38.9 g
  Body weight change rate: −14.0%
[1]; day 24
  Body weight (mean): 38.2 g
  Body weight change rate: −15.6%
[1]; day 25
  Body weight (mean): 38.4 g
  Body weight change rate: −15.1%
[1]; day 26
  Body weight (mean): 38.6 g
  Body weight change rate: −14.6%
[1]; day 27
  Body weight (mean): 38.7 g
  Body weight change rate: −14.5%
[1]; day 28
  Body weight (mean): 38.4 g
  Body weight change rate: −15.1%
[1]; day 29
  Body weight (mean): 37.4 g
  Body weight change rate: −17.4%
[2]; day 23, relative to control group G2
  body fat mass and body fat ratio (in words): significantly decreased
[2]; mean, day 23 (Table 15), HTD1801 250 mpk, dapagliflozin 10 mpk, empagliflozin 15 mpk p.o. QD
  Body weight: 38.9 g
[2]; [4]
  Body fat ratio: 44.8%
  Fat (body fat mass): 17.5 g
[3]; day 23, relative to model control group G2
  lean ratio (in words): slightly increased
[3]; mean, day 23 (Table 16), HTD1801 250 mpk, dapagliflozin 10 mpk, empagliflozin 15 mpk p.o. QD
  Body weight: 38.9 g
[3]; [4]
  Lean (lean mass): 5.1 g
  Lean ratio: 13.0%
